The text below walks through data of patent US20180161388A1, “SUBSTANCE P, MAST CELL DEGRANULATION INHIBITORS, AND PERIPHERAL NEUROPATHY” (Beth Israel Deaconess Medical Center, Inc., priority 2015, published 2018).

One assay concerns mast cells (MC). The assay is described as follows: Toluidine blue count of degranulated mast cells in dorsal skin biopsies of STZ-DM mice. The conditions noted are these: STZ-DM C57Bl6 mice, 8-weeks DM, ten days intraperitoneal treatment. In kind it is in vivo. As to the method: The number of intact or non-degranulated and degranulated MC in dorsal skin biopsies from non-DM and STZ-DM C57B16 mice with 8-weeks DM were evaluated by toluidine blue staining. Sections were stained metachromatically with 0.1% toluidine blue, pH 2 (cytoplasmic granules appear purple on a blue background). […] See e.g., J Peripher Nery Syst 2008; 13:218-27, Handbook of clinical neurology 2013; 115:115-36, Immunol Rev 2007; 217:65-78, Proc Natl Acad Sci USA 2006; 103:7759-64, and Nature 1982; 297:229-31. Non-DM and STZ-DM mice were also treated for ten days intraperitoneally with the MC stabilizer disodium cromoglycate (DSCG). […] However, the number of extensively degranulated MC was increased whereas the number of non-degranulated cells was reduced in STZ-DM mice compared to the non-DM controls.

A further assay relates to M1 and M2 macrophages. The assay is described as follows: M1/M2 macrophage ratio in skin after 10-day intraperitoneal DSCG. The format is in vivo, mice. The settings on record: measured ten days after treatment completion. As to the method:
The number of HLA-DR^+/CD68^+ (M1−) and CD206/CD68^+ (M2−) macrophages in the skin of DM patients and non-DM subjects were evaluated by immunofluorescence following previously defined methods. See e.g., J Peripher Nery Syst 2008; 13:218-27, Handbook of clinical neurology 2013; 115:115-36, Immunol Rev 2007; 217:65-78, Proc Natl Acad Sci USA 2006; 103:7759-64, and Nature 1982; 297:229-31. […] The gene expression of M1-associated pro-inflammatory cytokines, such as TNF-α (FIG. 4, panel a) and IL-1β (FIG. 4, panel b), was also elevated in the foot skin of diabetes mellitus patients, whereas the M2-associated anti-inflammatory cytokine IL-10 was reduced (FIG. 4, panel c).
Using the same methods as in the human samples described above, an increased M1/M2 ratio in C57BL/6J STZ-DM mice was observed. […] Both non-DM and STZ-DM KO mice and their normal littermates were tested.
The effect of a 10-day disodium cromoglycate (DSCG) intraperitoneal administration was evaluated in non-DM and STZ-DM C57B16 mice that were also tested for their wound healing capacity.

The test system of assay [1] is intraepidermal nerve fibers. Nature of the assay: Intraepidermal nerve fiber density (IENFD) in normal skin adjacent to wounds. The format is in vivo, mice. The procedure: In a blinded mode, the IENFD in normal skin areas adjacent to wounds in non-DM and DM not-treated and treated with topical SP application for a 10-day period as described above (FIGS. 13 and 14) was evaluated. […] Similar results were found in preliminary studies that evaluated the effect of MC stabilization with DSCG. More specifically, DSCG treatment in two DM mice tended to have a beneficial effect in IENFD (151±55 fibers/mm) compared to four non-treated DM mice (55±17, p<0.05). Initial observations in TAC1KO mice also indicated reduced IENFD (28±12, n=2 mice) that improved in a similar way as with the previous experiments following SP treatment (41±16, n=2).

The subject of a further assay is 6 mm excisional wounds. The assay is described as follows: Daily topical SP in 6 mm excisional wounds: IL-6 expression and M1/M2 ratio. In kind it is in vivo, mice. The source says: Daily topical Substance P (SP) application in 6 mm excisional wounds created at the back of non-DM and STZ-DM mice increased the IL-6 expression and M1/M2 ratio three days after wounding, imitating the acute inflammatory phase of wound healing in acute wounds (FIG. 12). However, at Day-10, SP reduced both these inflammatory factors in STZ-DM mice, which was increased when compared to non-DM mice.

For the next assay, the system named is wounds. Nature of the assay: Topical wound SP treatment in MC deficient mice (wound healing). The format is in vivo. The settings on record: compared with WT mice. The text has this:
Combined topical treatment with SP and an MC stabilization agent should have an additive, if not synergistic, effect in preventing and reversing SFN.

The mark [2] stands for this setting: STZ-DM mice, Day-10, listed as SP.
[3] abbreviates: non-DM and STZ-DM mice, three days after wounding.
[4] abbreviates: non-DM and STZ-DM mice, three days after wounding, listed as SP.

Entries after “also recorded” stand apart in the source; their conditions may differ. Where no end group is shown, it is not given here.

Regarding `O=C([O-])c1cc(=O)c2c(OCC(O)COc3cccc4oc(C(=O)[O-])cc(=O)c34)cccc2o1.[Na+].[Na+]` [DSCG, disodium cromoglycate], in the assay with mast cells (MC), the “number of degranulated MC in skin” value was “effectively reduce the number of degranulated cells”. Also, the M1/M2 macrophage ratio entry in the assay on M1 and M2 macrophages (STZ-DM C57Bl6 mice) was “drastically reduces it in STZ-DM to normal levels; also recorded: reduced the ratio to levels similar to the non-DM mice; also recorded: reduces the M1/M2 ratio to normal levels”; with M1 and M2 macrophages (non-DM C57Bl6 mice), “no effect”. This compound yielded an IENFD in assay [1] (DM mice treated with DSCG (two mice), preliminary study, non-treated DM 55±17) of 151±55 fibers/mm.

In the case of “Substance P (RPKPQQFFGLM-NH2; ends and bridges not checked; UniProt P20366 58-68, looked up) [neuropeptide Substance P (SP), acts through the NK1 receptor]”, the “IL-6 expression in wounds” value with 6 mm excisional wounds (setting [2]) was “reduced the chronic inflammation”; with 6 mm excisional wounds (setting [3]), “increased”; in the assay with 6 mm excisional wounds (setting [4]), “induced an acute inflammatory response”. The “M1/M2 ratio in wounds” value with 6 mm excisional wounds (setting [2]) is reported as “reduced the chronic inflammation”; with 6 mm excisional wounds (setting [3]) it was “increased”; in the assay on 6 mm excisional wounds (setting [4]), “induced an acute inflammatory response”. Further, the IENFD entry is listed as “returned to normal levels; also recorded: increased IENFD to levels similar to the non-DM mice” in assay [1] (DM mice, topical application for 10 days, periwound normal skin, listed as SP); 41±16 fibers/mm in assay [1] (TAC1KO mice after SP treatment (n=2), initial observations, untreated 28±12); “did not affect IENFD; also recorded: no obvious effect” in assay [1] (non-DM mice, topical application for 10 days, periwound normal skin, listed as SP). For the same compound, the “effect on wound healing” value in the assay on wounds is given as “lacks the beneficial effects”.
